Assay results published in the supplement of paper PMC10307832.

Experiments:
Test in all cases: relative viability (nuclei count vs DMSO), 5 days (fraction); higher = more cells survive
[1] = compound: COc1cc(Nc2ncc(F)c(Nc3ccc4c(n3)NC(=O)C(C)(C)O4)n2)cc(OC)c1OC [R406] + CCNC(=O)c1noc(-c2cc(C(C)C)c(O)cc2O)c1-c1ccc(CN2CCOCC2)cc1 [Luminespib] (partner 0.01 µM)
Summary of the method: (§1)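 Lung cancer cell lines in 1536-well plates got either a single drug or a fixed anchor-drug dose together with five library-drug doses (not always all listed) in √10 steps, by pin tool, on the day after seeding. Nuclei were counted after 5 days, and relative viability is the treated-to-vehicle ratio of nuclei counts. Values are medians of duplicate plates.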

[2] = compound: COc1cc(Nc2ncc(F)c(Nc3ccc4c(n3)NC(=O)C(C)(C)O4)n2)cc(OC)c1OC [R406] + CS(=O)(=O)N1CCN(Cc2cc3nc(-c4cccc5[nH]ncc45)nc(N4CCOCC4)c3s2)CC1 [Pictilisib] (partner 1 µM)
Summary of the method: as §1

[3] = compound: O=C(/C=C/c1cccnc1)NCCCCC1CCN(C(=O)c2ccccc2)CC1 [Daporinad] + NC(=O)Nc1cc(-c2cccc(F)c2)sc1C(=O)N[C@H]1CCCNC1 [AZD7762] (partner 0.2 µM)
Summary of the method: as §1

[4] = compound: O=C(/C=C/c1cccnc1)NCCCCC1CCN(C(=O)c2ccccc2)CC1 [Daporinad] + COc1cccc2cc(-c3nc([C@H]4CC[C@H](C(=O)O)CC4)n4ncnc(N)c34)[nH]c12 [OSI-027] (partner 0.5 µM)
Summary of the method: as §1

Cell Line	relative viability ([1]; first compound 0.08 µM)	relative viability ([1]; first compound 0.253 µM)	relative viability ([1]; first compound 0.8 µM)	relative viability ([1]; first compound 2.53 µM)	relative viability ([1]; first compound 8 µM)	relative viability ([2]; first compound 0.08 µM)	relative viability ([2]; first compound 0.253 µM)	relative viability ([2]; first compound 0.8 µM)	relative viability ([2]; first compound 2.53 µM)	relative viability ([2]; first compound 8 µM)	relative viability ([3]; first compound 0.0005 µM)	relative viability ([3]; first compound 0.001581 µM)	relative viability ([3]; first compound 0.005 µM)	relative viability ([3]; first compound 0.01581 µM)	relative viability ([4]; first compound 0.0005 µM)	relative viability ([4]; first compound 0.001581 µM)	relative viability ([4]; first compound 0.005 µM)	relative viability ([4]; first compound 0.01581 µM)
NCI-H1666	1.02	1.16	1.03	1.05	0.64	0.431	0.555	0.515	0.323	0.359	0.773	0.874	0.941	0.851	0.822	0.989	0.826	0.896
NCI-H1734	0.196	0.193	0.207	0.189	0.16	0.434	0.478	0.593	0.248	0.281	0.546	0.521	0.51	0.328	0.569	0.676	0.674	0.527
NCI-H1755	0.351	0.459	0.255	0.211	0.334	0.469	0.415	0.496	0.221	0.195	0.429	0.43	0.462	0.5	0.628	0.758	0.761	0.778
NCI-H1792	0.423	0.424	0.402	0.278	0.176	0.264	0.193	0.302	0.161	0.164	0.55	0.702	0.756	0.955	0.668	0.655	0.541	0.893
NCI-H1793	0.145	0.148	0.18	0.128	0.136	0.367	0.354	0.492	0.168	0.23	0.467	0.511	0.522	0.764	0.25	0.252	0.343	0.254
NCI-H1915	0.819	0.886	0.982		0.624	0.942	1.03	0.972	0.364	0.74	0.667	0.742	0.716	0.71	0.613	0.641	0.719	0.712
NCI-H1944	0.686	0.805	0.759	0.369	0.517	0.316	0.344	0.348	0.265	0.279	0.474	0.453	0.6	0.579	0.447	0.422	0.527	0.517
NCI-H1975	0.25	0.227	0.187	0.143	0.116	0.29	0.297	0.319	0.162	0.142	0.61	0.752	0.729	0.747	0.753	0.738	0.8	0.672
NCI-H1993	0.78	1.11	0.988	0.359	0.577	0.769	0.814	0.862	0.604	0.928	0.645	0.774	0.787	0.962	0.618	0.508	0.55	0.542
